The values that follow are results of earlier work, collected in US12473269B2, “Urolithin derivatives and methods of use thereof” (Vandria SA, priority 2021, dated 2025).

The data set relates to C2C12 myoblasts. The settings on record: treatment of C2C12 myoblasts; mitochondrial fragmentation and decrease in mitochondrial content; Ryu et al., Nat Med 2016.

Molecules are shown by their SMILES.

`O=c1oc2cc(O)ccc2c2ccc(O)cc12` [UA, Urolithin A]: the induction of mitophagy entry was “induction of mitophagy”.
